# Experiments:
# [1] = Safety and tolerability, 57-week study; format: in vivo, human
# Protocol: Part B, following immediately after Part A, was an open-label extension of the oral daily dose for an additional 52 weeks. The primary endpoint of 57-week study was to establish the safety and tolerability of the drug. Secondary endpoints aimed at establishing the relationship between dosing regimen and pharmacodynamics-exploratory efficacy outcomes of cognition and function. Cognition was assessed by the Mini Mental State Examination (MMSE), while functional abilities by the Alzheimer's Disease Co-operative Study—Activities of Daily Living Inventory (ADCS-ADL). Additional cognitive measures included the Cogstate Brief Battery (CBB), and functional measures of Electroencephalography and Event-Related Potential (EEG and ERP). Part B continued an adaptive oral administration scheme. Table 12 summarizes mean oral dose administration during the 57-week study study. Safety was evaluated by assessment of incidence and severity of adverse events, vital signs, physical examination, clinical laboratory parameters (hematology, serum chemistry and urinalysis), and electrocardiogram (data not shown).
# [2] = system: subjects with mild-to-moderate AD; assay: KEM Formal Concept Analysis association rules (support, confidence, lift) linking patient characteristics with MMSE / ADCS-ADL response; design: species or system human
# Source text: A small cohort, with the number of patient observations orders of magnitude smaller than number of attributes, constitutes an analytical challenge. In this study, an unsupervised Formal Concept Analysis method (FCA), based on Galois lattices, as implemented in the KEM software (v.3.6.2), was used to identify and rank phenotypic and genotypic biomarkers. No link is assumed in this analysis between biomarkers and outcomes, enabling a hypothesis free, data-driven, generation of all relations.
# A total of 3,145,630 relations between all available features were explored. Stringent filtering excluded rules containing variables coding for the absence of DNA variants and medium RNA expression groups. Numerical filtering of rules involved the following thresholds: support (n>3), confidence (>50%), lift (≥1.2) and p-value (Fisher Exact Test or Mann-Whitney-Wilcoxon<0.05). The filtering steps led to a subset of 1,019 association rules linking clinical, genomic and transcriptomics patient characteristics with response at multiple time points. A second filtering step focused on relationships with response at week 57 only, raising […], and lift≥1.5, and excluding RNA expression, CYP variants and dose/concentration from Part A. This further reduced the number of rules to 15 associations linked to outcome as measured by Delta (with binarized discretization) or Slope of MMSE or ADCS-ADL at week 57. The 15 rules are presented in order of highest confidence and highest lift. The stringent filtering focused on relationships of response at week 57 (end of Part B), reduced the number of associations to only 15 linked to outcomes as measured by Delta or Slope MMSE or ADCS-ADL (Table 4). […] Higher concentrations improved Delta ADCS-ADL scores (p=0.03) (FIG. 2C).
# The KEM® (Knowledge Extraction and Management) v 3.6.2 software was used to systematically extract relations between all variables collected. […]
# P-values from two statistical tests were calculated for each association rule. […]
# SIGMAR1 = molecular target: T1, SIGMAR1 (Mus musculus, UniProt O55242); conditions: mice; cited from earlier work
# T1 construct: from tissue; host or cells: living mice (in vivo PET)
# [3] = Phase 1 study; 1-60 mg range; male healthy subjects; cited from earlier work
# T1 sequence (O55242 whole entry): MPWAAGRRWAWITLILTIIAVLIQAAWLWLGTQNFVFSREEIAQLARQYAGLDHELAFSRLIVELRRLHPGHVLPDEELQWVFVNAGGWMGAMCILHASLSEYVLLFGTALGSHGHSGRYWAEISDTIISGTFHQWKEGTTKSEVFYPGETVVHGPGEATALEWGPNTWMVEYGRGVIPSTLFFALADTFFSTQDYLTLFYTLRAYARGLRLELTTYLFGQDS
compound,measurement,setting,value
"CN(C)CC1CCOC1(c1ccccc1)c1ccccc1.Cl (stereo not shown) [ANAVEX2-73, tetrahydro-N,N-dimethyl-2,2-diphenyl-3-furanmethanamine hydrochloride]",primary endpoint of safety and tolerability,"[1]; 57-week Phase 2a AD study, 32 patients with mild to moderate AD",met its primary endpoint of safety and tolerability
same,patients discontinued due to an Adverse Event (AE),"[1]; 57-week study, seven patients discontinued in total",one
same,"Confidence, High Concentration Part B -> MMSE Slope Improve","[2]; Week 57, Support 5, nx 8, ny 7",0.63
same,"Lift, High Concentration Part B -> MMSE Slope Improve","[2]; Week 57, Support 5, nx 8, ny 7",1.88
same,increase in probability of improved MMSE outcome,"[2]; average blood concentration above 4 ng/mL in Part B, week 57",1.88 fold
same,target binding by PET scan,SIGMAR1,directly bind its target
same,relationship between dose and plasma concentration,[3],linear
